Measured values as given in publication PMC6385087, “New Multitarget Hybrids Bearing Tacrine and Phenylbenzothiazole Motifs as Potential Drug Candidates for Alzheimer’s Disease” (Molecules, 2019).
Like-named read-outs stand apart in the source and are kept apart here.

Columns and labels:
[1] = biological target: T1, AChE from electric eel (Electrophorus electricus, UniProt O42275); experiment: biochemical; conditions: means of two experiments, read-out: Inhibition of AChE (IC50)
T1 construct: commercially available enzyme AChE 500 U (extracted from electrophorus electricus); purchased type VI-S; host or cells: extracted from electric eel
Experimental: The analytical grade reagents were purchased from Sigma-Aldrich (St. Louis, MO, USA) and Acros (Thermo Fisher Scientific, Geel, Belgium) and were used without any further purification. The organic solvents were dried and distilled according to standard methods described in literature. […] The Proton and Carbon-13 NMR were recorded either on Bruker AVANCE III-300 (300 MHz and 75.5 MHz) or Bruker AVANCE III-400 (400 MHz and 100.5 MHz) NMR spectrometers (Billerica, MA, USA) at 25 °C using peaks of solvents as internal standard. The chemical shift values of protons or carbons were measured on a δ scale and the coupling constant values (J) were determined in Hertz. In the NMR representation, abbreviations are mentioned as: singlet represented by s, doublet represented by d, triplet represented by t, multiplet represented by m, double doublet represented by dd, and broad singlet represented by brs. The Leica Galen III hot stage apparatus (Leica Microsystems, Wetzlar, Germany) was used for measuring the melting points of compounds. […] The AChE inhibitory activity was measured in a 1 cm path length quartz cell through a Perkin Elmer Lambda 35 spectrophotometer equipped with a temperature programmer PTP1+1 Peltier System (T = 25.0 ± 0.1 °C) (Waltham, MA, USA). Electrospray ionization-mass (ESI-MS) measurements were carried out on a LCQ Fleet mass spectrometer (Thermo Scientific, S. Jose, CA, USA) operated in the ESI positive and negative ion modes.
Modified Ellman’s method was used as described previously for the determination of AChE activity. The AChE stock solution was prepared by dissolving commercially available enzyme AChE 500 U (extracted from electrophorus electricus) in 10 mL of TRIS buffer (50 mM, pH 8). HEPES buffer was used for the dilution of the enzyme to give the final AChE concentration. The assay solution consisted of 374 μL of 4-(2-hydroxyethyl)-1-piperazineethanesulfonic acid (Hepes) buffer (50 mM, pH 8.0), 476 μL of 3 mM bis(3-carboxy-4-nitrophenyl)disulfide (DTNB), 25 μL of AChE (type VI-S, from electric eel) stock solution, a variable volume (10–50 μL) of the compound’s stock solution (1 mg/mL of MeOH), and the necessary amount of methanol to attain the same volume of sample mixture (0.925 mL) in a 1 mL cuvette. Samples were left to react for 15 min and then the reaction was monitored at wavelength of 405 nm for 5 min, after adding 75 μL of 16 mM acetylthiocholine iodide (AChI) solution. Assays were run with a blank containing all the components except AChE, which was replaced by HEPES buffer. The velocities of the reaction were calculated as well as the enzyme activity. A control reaction was carried out using the sample solvent (methanol) in the absence of any tested compound, and it was considered as 100% activity. […] The inhibition curves were obtained by plotting the percentage of enzymatic inhibition versus inhibitor concentration and a calibration curve was obtained from which the linear regression parameters were calculated.

[2] = tested on: SH-SY5Y cells; experiment: Dose-response screening for non-toxic concentration, MTT reduction; assay type: cell-based; conditions: dose-response screening from 0.2 μM to 5 μM, 25 h
Experimental: The neuroprotective effect of TAC-PhBTA conjugates was evaluated using SH-SY5Y cells treated with Aβ1–42 peptides or ascorbate/iron. For each compound, a dose-response curve was performed to select a non-toxic concentration in order to analyze its neuroprotective effect (Figure 3).
SH-SY5Y human neuroblastoma cell line (ATCC-CRL-2266) grown in Dulbecco’s modified Eagle’s medium (DMEM) obtained from Gibco-Invitrogen (Life Technologies Ltd., Liverpool, UK) with 10% heat inactivated fetal calf serum, containing 50 U/mL penicillin, and 50 μg/mL streptomycin, under a humidified atmosphere of 95% air-5% CO2 at 37 °C. Cells were plated at 0.12 × 10^6 cells/mL for cell viability assay. […]. As a result we selected a 2.5 μM final concentration for compound 16; 0.5 μM final concentration for compound 17; 0.2 μM final concentration for compounds 14 and 15; and a 1 μM final concentration for compounds 19 and 18. […] The compounds were added to the cell media 1 h before the incubation with Aβ1–42 or ferrous sulfate/L-ascorbic acid. Aβ1–42 or ferrous sulfate/L-ascorbic acid where incubated alone or with the compound for an additional 24 h. Aβ1–42 was prepared as 276.9 μM stock in sterile water and added to the medium at 1 μM final concentration. Ferrous sulfate was freshly prepared as 0.36 M stock in water and added to the medium at 500 μM final concentration. L-Ascorbic Acid was freshly prepared as 80 mM stock in water and added to the medium at 5 mM final concentration. Aβ1–42 was purchased from Bachem (Torrance, CA, USA) and ferrous sulfate and L-ascorbic acid from Sigma Chemical Co (St. Louis, MO, USA).
Cell viability was determined by a MTT (3-(4,5-dimethylthiazol-2-yl)-2,5-diphenyltetrazolium bromide) reduction test. In viable cells, the enzyme succinate dehydrogenase metabolizes MTT into formazan that absorbs light at 570 nm. Following the cell treatment protocol the medium was aspirated and 0.5 mL MTT (0.5 mg/mL) was added to each well. The plate was then incubated at 37 °C for 1 h 30 min protected from light. At the end of the incubation period the formazan precipitates were solubilized with 0.5 mL of acidic isopropanol (0.04 M HCl/isopropanol). The absorbance was measured at 570 nm. Cell reduction ability was expressed as a percentage of untreated control cells.

[3] = biological target: T2, Aβ1–42 self-aggregation (Homo sapiens, UniProt P05067); experiment: Aβ1–42 self-aggregation inhibition, thioflavin T fluorescence assay; assay type: biochemical; conditions: for inhibition at 40 µM: read-out: Inhibition of Aβ-self-aggregation (%)
T2 construct: Commercially available Aβ1-42 peptide was obtained from Aldrich; purchased Aldrich
Experimental: […]. Since the compounds of this series presented some solubility problems in methanol, the assays were performed with ligands at concentrations of 40 µM, i.e., half of the concentration usually used (80 µM) in these assays. […]. […] So, it appears that introduction of a chloro substituent in TAC and/or a hydroxyl group in the carbon linker are not well suited for the interaction with β-sheet secondary structure of Aβ aggregates. […].
Commercially available Aβ1-42 peptide was obtained from Aldrich and stored at −20 °C. It was treated with 1,1,1,3,3,3-hexafluoropropan-2-ol (HFIP) to avoid self-aggregation and reserved. HFIP pre-treated Aβ1–42 samples were re-dissolved in CH3CN/Na2CO3 (300 µM)/NaOH (250 µM) (48.3:48.3:4.3, v/v/v) solvent mixture in order to have a stable stock solution; this solution (500 µM) was further diluted in phosphate buffer (0.215 M, pH 8.0) to obtain 40 µM solution. The ligand, which was previously dissolved in methanol, was further diluted in phosphate buffer to a final concentration of 40 µM. Aβ1–42 aggregation was determined by measuring the fluorescence emission of Thioflavin T dye, with a Cary Eclipse Varian fluorimeter (Molecular Devices, San José, CA, USA).
After incubation for 24 h at 37 °C, without stirring, the samples were added to a 96-well plate (BD Falcon) with 180 µL of 5 µM ThT in 50 mM glycine-NaOH (pH 8.5) buffer. Blank samples were prepared for each concentration in a similar way, devoid of peptide. As for the control, a sample of the peptide was incubated under identical conditions but without the inhibitor. After 5-min incubation with the dye, the ThT fluorescence was measured at the following wavelengths: 446 nm (excitation) and 486 nm (emission). The percent inhibition of the self-induced aggregation due to the presence of the test compound was calculated by Equation (2), in which IFi and IF0 corresponded to the fluorescence intensities, in the presence and the absence of the test compound, minus the fluorescence intensities due to the respective blanks. I% = 100 − (IFi/IF0 × 100)(2)
The reported values were obtained as the mean ± S.E.M. of two different experiments.

[4] = self-mediated Aβ42 aggregation, ThT fluorescence, CL = 40 μM, means of two experiments

T2 sequence (P05067 672-713 limits assumed): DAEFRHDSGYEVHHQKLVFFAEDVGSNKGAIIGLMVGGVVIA
T1 sequence (O42275 24-633): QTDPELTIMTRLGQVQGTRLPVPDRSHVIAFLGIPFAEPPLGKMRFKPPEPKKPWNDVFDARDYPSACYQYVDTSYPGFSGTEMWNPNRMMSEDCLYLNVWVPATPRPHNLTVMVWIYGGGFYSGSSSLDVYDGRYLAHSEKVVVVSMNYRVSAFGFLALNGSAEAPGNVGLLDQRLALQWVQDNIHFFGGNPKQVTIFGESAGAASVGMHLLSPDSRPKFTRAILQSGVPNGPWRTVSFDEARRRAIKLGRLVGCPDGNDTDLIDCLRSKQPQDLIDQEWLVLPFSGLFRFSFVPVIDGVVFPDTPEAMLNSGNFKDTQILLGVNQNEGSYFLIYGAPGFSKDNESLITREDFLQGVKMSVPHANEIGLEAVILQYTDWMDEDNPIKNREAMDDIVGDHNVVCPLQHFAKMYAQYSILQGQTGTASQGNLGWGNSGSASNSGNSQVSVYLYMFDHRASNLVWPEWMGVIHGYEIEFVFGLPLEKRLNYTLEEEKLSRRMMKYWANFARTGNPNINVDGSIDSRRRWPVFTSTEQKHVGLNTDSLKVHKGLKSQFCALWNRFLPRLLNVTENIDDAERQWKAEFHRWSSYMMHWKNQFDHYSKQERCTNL

Row | Structure (SMILES) | IC50 [1] | Highest non-toxic concentration selected [2] | Inhibition of Aβ-self-aggregation (%) ([3]; self-mediated Aβ42 aggregation, ThT fluorescence, CL = 40 μM, means of two experiments, 40 µM) | inhibition at 40 µM [3, 4] | inhibition at 80 µM ([3]; read-out: Inhibition of Aβ self-aggregation (%)) | inhibition at 40 µM [3]
1 | COc1cc(-c2nc3ccccc3s2)ccc1OCC(=O)NCC(O)CNc1c2c(nc3ccccc13)CCCC2 (stereo not drawn) [compound 18, 2-(4-(Benzo[d]thiazol-2-yl)-2-methoxyphenoxy)-N-(2-hydroxy-3-((1,2,3,4-tetrahydroacridin-9-yl)amino)propyl)acetamide] | 270 nM | 1 µM | 31.1% | ~31% | – | –
2 | COc1cc(-c2nc3ccccc3s2)ccc1OCC(=O)NCCCNc1c2c(nc3cc(Cl)ccc13)CCCC2 [compound 17, 2-(4-(Benzo[d]thiazol-2-yl)-2-methoxyphenoxy)-N-(3-((6-chloro-1,2,3,4-tetrahydroacridin-9-yl)amino)propyl)acetamide] | 130 nM | 0.5 µM | – | 32.5% | – | –
3 | COc1cc(-c2nc3ccccc3s2)ccc1OCC(=O)NCCNc1c2c(nc3ccccc13)CCCC2 [compound 14, 2-(4-(Benzo[d]thiazol-2-yl)-2-methoxyphenoxy)-N-(2-((1,2,3,4-tetrahydroacridin-9-yl)amino)ethyl)acetamide] | 110 nM | 0.2 µM | – | 44.6% | – | –
4 | Nc1c2c(nc3ccccc13)CCCC2 [TAC, tacrine] | – | – | – | – | 11% | 11%
